Where a SMILES comes first, the peptide text is derived from it.

The target of the first assay is T1, human TNFα (Homo sapiens, UniProt P01375).
T1 construct: purchased Biosource, Camarillo, Calif
T1 sequence (P01375 77-233 limits assumed): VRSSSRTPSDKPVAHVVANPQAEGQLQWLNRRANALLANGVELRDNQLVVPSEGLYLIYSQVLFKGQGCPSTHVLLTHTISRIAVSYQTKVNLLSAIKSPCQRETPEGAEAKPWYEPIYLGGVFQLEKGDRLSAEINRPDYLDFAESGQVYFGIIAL
The assay is described as follows: p55 Receptor/IgG Fusion Protein Binding Assay (inhibition of TNFα capture by p55-Ig coated plate). As to conditions: peptide 1 mM; TNFα 25 ng/ml. As for the experimental part: This assay was designed to identify peptides which bind to human TNFα and thereby prevent the capture of the TNFα by a microtiter plate coated with p55-Ig fusion protein. A constant concentration of human TNFα is preincubated with the test peptide and then incubated on the p55-Ig coated microtiter wells. Bound TNFα is detected using a specific antisera and an alkaline phosphatase-conjugated probe.
A 96-well, U-bottom polyvinylchloride microtiter plate was coated with 50 μl/well of p55-Ig fusion protein at 5 μg/ml in 0.01M sodium phosphate, 0.15M sodium chloride (PBS) by incubation overnight at 4° C. or 2 hours at 37° C. The fusion protein, which consists of a p55 TNF receptor protein portion and an IgG portion, can be produced as disclosed in U.S. application Ser. No. 08/010,406 filed Jan. 29, 1993 which is incorporated herein by reference. The plate was washed three times with 0.05% Tween-20 in PBS, then blocked, by adding 150 μl/well of assay buffer (10 mM N-2-hydroxyethylpiperazine-N'-[…] (HEPES) pH 7.2, containing 0.1% porcine gelatin, 0.1% Tween-80, and 0.01% sodium azide) and continuing incubation for 1 hour at 37° C. or at 4° C. for 1-7 days.
Lyophilized peptides to be tested were weighed in tared 12×75 mm polystyrene tubes and reconstituted to a concentration of 1.2 mM with assay buffer. Each suspension was sonicated in a water bath for 1-5 minutes and vortexed 15-30 seconds to disperse large particles. Serial dilutions of each peptide suspension were prepared using assay buffer in a 96-well polystyrene microtiter plate. Additional wells received Fab fragment of the mouse/human monoclonal anti-human TNFα antibody cA2 (positive control) or assay buffer (negative control). […] The polystyrene dilution plate was then sealed and incubated 1 hour at room temperature on an orbital mixer set at moderate speed.
Following the sample preincubation, blocker was discarded from the p55-Ig coated plate and blotted dry. Aliquots (50 μl) of each peptide or control were transferred into duplicate wells on the p55-Ig coated plate which was then sealed and incubated i hour at 37° C. Duplicate wells containing only assay buffer were included as a plate blank. After incubation the p55-Ig plate was washed three times with 0.05% Tween-20 in PBS.
To detect TNFα captured by the p55-Ig plate, all wells were incubated in succession with polyclonal rabbit anti-human TNFα (Genzyme, Boston, Mass.; 1:500 in assay buffer, 50 μl/well), biotinylated goat anti-rabbit Ig (H&L) (Vector Laboratories, Burlingame, Calif.; 1 μg/ml in assay buffer, 50 μl/well) and streptavidin-alkaline phosphatase conjugate (Pierce, Rockford, Ill.; 1 μg/ml in assay buffer, 50 μl/well). All incubations were for 1 hour at 37° C. and after each incubation the plate was washed three times with 0.05% Tween-20 in PBS. Fifty microliters of alkaline phosphatase substrate solution (alkaline buffer (Sigma, St. Louis, Mo.) diluted 1:500 in deionized water plus one 5 mg tablet of p-nitrophenyl phosphate (Sigma, St. Louis, Mo.) per 5 ml of diluted buffer) was added to all wells and incubation continued for 20 minutes at room temperature. Color development was stopped by adding to all wells 50 μl of 3N sodium hydroxide. The optical density (OD) at 405 nm was measured on a microtiter plate reader (Molecular Devices Vmax plate reader), with the plate blank wells subtracted as background. The activity of each peptide was then expressed as the percent inhibition of TNFα capture by the p55-Ig plate, relative to the amount of TNFα captured in wells containing only assay buffer (negative control), as follows: % inhibition=100-((mean OD peptide/mean OD negative control)×100).
The inhibition of binding of TNFα to p55TNFr-IgG chimeric construct was performed as described above using several embodiments of the invention. The peptides were tested at a concentration of 1 mM.
On to “SEQ ID NO:50: peptide of the invention that inhibits TNFα; sequence not printed (VAIPGNASRDAVATS)”, for which the “inhibition of binding of TNFα to p55TNFr-IgG chimeric construct” value is given as 29%. On the same count and under the same terms, under “SEQ ID NO:38: peptide of the invention that inhibits TNFα; sequence not printed (YTQLWNWVPEALSAG)” stands 64%; under “SEQ ID NO:48: peptide of the invention that inhibits TNFα; sequence not printed (TDIARPHQIANVVAI)”, 27%. On the same count and under the same terms, in the case of “SEQ ID NO:39: peptide of the invention that inhibits TNFα; sequence not printed (LWNWVPEALSAGSRA)” it was 42%; in that of “SEQ ID NO:37: peptide of the invention that inhibits TNFα; sequence not printed (DSTYTQLWNWVPEAL)”, 77%.

The same assay, now with this note: peptide 1 mM; TNFα 25 ng/ml; read-out: inhibition of binding of TNFα to p55TNFr-IgG chimeric construct.
Consider `CSCC[C@H](NC(=O)[C@H](CO)NC(=O)[C@H](CCCNC(=N)N)NC(=O)[C@@H](NC(=O)[C@@H]1CCCN1C(=O)[C@H](CO)NC(=O)[C@@H](NC(=O)[C@H](CO)NC(=O)[C@@H](NC(=O)[C@H](C)N)[C@@H](C)O)[C@@H](C)O)[C@@H](C)O)C(=O)N[C@@H](C)C(=O)N1CCC[C@H]1C(=O)NCC(=O)N[C@@H](C)C(=O)N[C@H](C(N)=O)C(C)C` [SEQ ID NO:54] (H-ATSTSPTRSMAPGAV-NH2), for which the inhibition at 1000 µM was 52%. Still for that read-out and setting: in the case of `C[C@H](NC(=O)[C@@H](NC(=O)[C@H](CO)NC(=O)[C@@H]1CCCN1C(=O)[C@H](CCC(=O)O)NC(=O)[C@@H]1CCCN1C(=O)[C@@H](NC(=O)[C@@H]1CCCN1C(=O)[C@H](CCC(N)=O)NC(=O)[C@@H](N)[C@@H](C)O)[C@@H](C)O)[C@@H](C)O)C(=O)N1CCC[C@H]1C(=O)N[C@@H](CO)C(=O)N[C@H](C(=O)N[C@@H](CO)C(=O)N[C@@H](Cc1ccccc1)C(N)=O)[C@@H](C)O` [SEQ ID NO:59] (H-TQPTPEPSTAPSTSF-NH2) it was 73%; in that of `CC(=O)N[C@@H](CCC(N)=O)C(=O)N[C@@H](Cc1ccc(O)cc1)C(=O)N[C@@H](CCCNC(=N)N)C(=O)N[C@@H](Cc1c[nH]cn1)C(=O)N[C@@H](Cc1ccc(O)cc1)C(=O)N[C@@H](Cc1c[nH]c2ccccc12)C(=O)N[C@@H](CO)C(=O)N[C@@H](CCC(=O)O)C(=O)N[C@@H](CC(N)=O)C(=O)N[C@@H](CC(C)C)C(=O)N[C@@H](Cc1ccccc1)C(=O)N[C@@H](CCC(N)=O)C(=O)N[C@@H](C)C(=O)N[C@@H](Cc1ccccc1)C(=O)N[C@@H](CC(N)=O)C(N)=O` [SEQ ID NO:11, Acetyl-glutaminyl-tyrosyl-arginyl-histidyl-tyrosyl-tryptophyl-seryl-glutamyl-asparaginyl-leucyl-phenylalanyl-glutaminyl-alanyl-phenylalanyl-asparagineAmide], 27%; in that of `CC(C)C[C@H](NC(=O)[C@H](Cc1ccccc1)NC(=O)[C@H](Cc1ccccc1)NC(=O)CNC(=O)[C@H](C)NC(=O)[C@H](Cc1c[nH]cn1)NC(=O)[C@H](C)NC(=O)[C@@H](NC(=O)[C@H](C)NC(=O)[C@@H](NC(=O)[C@@H](NC(=O)[C@H](CC(N)=O)NC(=O)[C@H](CCC(N)=O)NC(=O)[C@@H](N)CCCCN)[C@@H](C)O)C(C)C)[C@@H](C)O)C(=O)N[C@@H](CCCNC(=N)N)C(N)=O` [SEQ ID NO:16, Lysyl-glutaminyl-asparaginyl-threonyl-valyl-alanyl-threonyl-alanyl-histidyl-alanyl-glycyl-phenylalanyl-phenylalanyl-leucyl-arginine Amide] (H-KQNTVATAHAGFFLR-NH2), 48%.

Regarding `CC(C)C[C@H](NC(=O)[C@H](Cc1ccccc1)NC(=O)[C@H](Cc1ccccc1)NC(=O)CNC(=O)[C@H](C)NC(=O)[C@H](Cc1c[nH]cn1)NC(=O)[C@H](C)NC(=O)[C@@H](NC(=O)[C@H](C)NC(=O)[C@@H](NC(=O)[C@@H](NC(=O)[C@H](CC(N)=O)NC(=O)[C@H](CCC(N)=O)NC(=O)[C@H](CCCCN)NC(=O)[C@H](CCC(=O)O)NC(=O)[C@@H](N)CCC(N)=O)[C@@H](C)O)C(C)C)[C@@H](C)O)C(=O)N[C@@H](CCCNC(=N)N)C(=O)N[C@@H](CCC(=O)O)C(=O)N[C@@H](CC(N)=O)C(=O)N[C@@H](CCC(=O)O)C(N)=O` [SEQ ID NO:15, Glutaminyl-glutamyl-lysyl-glutaminyl-asparaginyl-threonyl-valyl-alanyl-threonyl-alanyl-histidyl-alanyl-glycyl-phenylalanyl-phenylalanyl-leucyl-arginyl-glutamyl-asparaginyl-glutamic Acid Amide] (H-QEKQNTVATAHAGFFLRENE-NH2), the inhibition at 1000 µM turned out to be 48%. On to `CC(C)C[C@H](NC(=O)[C@H](CCCNC(=N)N)NC(=O)[C@H](C)NC(=O)[C@@H](NC(=O)[C@H](CO)NC(=O)CNC(=O)[C@@H]1CCCN1C(=O)[C@@H](N)CCC(=O)O)[C@@H](C)O)C(=O)N[C@@H](CCCNC(=N)N)C(=O)N[C@@H](CCC(=O)O)C(=O)N[C@@H](Cc1ccc(O)cc1)C(=O)N[C@@H](Cc1ccc(O)cc1)C(=O)N[C@@H](CC(=O)O)C(=O)N[C@@H](CCC(N)=O)C(=O)N[C@H](C(N)=O)[C@@H](C)O` [SEQ ID NO:27] (H-EPGSTARLREYYDQT-NH2), for which the inhibition at 1000 µM worked out at 78%. On the same count and under the same terms, in the case of `CSCC[C@H](NC(=O)[C@H](CCC(N)=O)NC(=O)[C@H](C)NC(=O)[C@@H](NC(=O)[C@H](CCC(N)=O)NC(=O)[C@H](CC(=O)O)NC(=O)[C@H](Cc1ccc(O)cc1)NC(=O)[C@H](Cc1ccc(O)cc1)NC(=O)[C@H](CCC(=O)O)NC(=O)[C@H](CCCNC(=N)N)NC(=O)[C@H](CC(C)C)NC(=O)[C@H](CCCNC(=N)N)NC(=O)[C@H](C)NC(=O)[C@@H](NC(=O)[C@@H](N)CO)[C@@H](C)O)[C@@H](C)O)C(N)=O` [SEQ ID NO:28] (H-STARLREYYDQTAQM-NH2) it was 72%; in that of `CC(C)C[C@H](NC(=O)[C@H](CCCNC(=N)N)NC(=O)[C@H](C)NC(=O)[C@@H](NC(=O)[C@H](CO)NC(=O)CNC(=O)[C@@H]1CCCN1C(=O)[C@H](CCC(=O)O)NC(=O)[C@@H]1CCCN1C(=O)[C@H](C)NC(=O)[C@@H](N)Cc1ccc(O)cc1)[C@@H](C)O)C(=O)N[C@@H](CCCNC(=N)N)C(=O)N[C@@H](CCC(=O)O)C(=O)N[C@@H](Cc1ccc(O)cc1)C(=O)N[C@@H](Cc1ccc(O)cc1)C(N)=O` [SEQ ID NO:26] (H-YAPEPGSTARLREYY-NH2), 71%. Still for that read-out and setting: in the case of `CSCC[C@H](NC(=O)[C@H](CCC(N)=O)NC(=O)[C@H](C)NC(=O)[C@@H](NC(=O)[C@H](CCC(N)=O)NC(=O)[C@H](CC(=O)O)NC(=O)[C@H](Cc1ccc(O)cc1)NC(=O)[C@H](Cc1ccc(O)cc1)NC(=O)[C@@H](N)CCC(=O)O)[C@@H](C)O)C(=O)N[C@@H](C)C(=O)N[C@@H](C)C(=O)N[C@@H](CO)C(=O)N[C@@H](CCCCN)C(=O)N[C@@H](C)C(=O)N[C@@H](CO)C(N)=O` [SEQ ID NO:30] (H-EYYDQTAQMAASKAS-NH2) it was 59%; in that of `CC(C)C[C@H](NC(=O)[C@H](Cc1ccccc1)NC(=O)[C@H](Cc1ccccc1)NC(=O)CNC(=O)[C@H](C)NC(=O)[C@H](Cc1c[nH]cn1)NC(=O)[C@H](C)NC(=O)[C@@H](NC(=O)[C@H](C)NC(=O)[C@@H](NC(=O)[C@@H](N)[C@@H](C)O)C(C)C)[C@@H](C)O)C(=O)N[C@@H](CCCNC(=N)N)C(=O)N[C@@H](CCC(=O)O)C(=O)N[C@@H](CC(N)=O)C(=O)N[C@@H](CCC(=O)O)C(N)=O` [SEQ ID NO:17] (H-TVATAHAGFFLRENE-NH2), 59%.

The same assay, now with this note: various concentrations of peptide.
Consider `CC(=O)N[C@@H](CCC(N)=O)C(=O)N[C@@H](Cc1ccc(O)cc1)C(=O)N[C@@H](CCCNC(=N)N)C(=O)N[C@@H](Cc1c[nH]cn1)C(=O)N[C@@H](Cc1ccc(O)cc1)C(=O)N[C@@H](Cc1c[nH]c2ccccc12)C(=O)N[C@@H](CO)C(=O)N[C@@H](CCC(=O)O)C(=O)N[C@@H](CC(N)=O)C(=O)N[C@@H](CC(C)C)C(=O)N[C@@H](Cc1ccccc1)C(=O)N[C@@H](CCC(N)=O)C(=O)N[C@@H](C)C(=O)N[C@@H](Cc1ccccc1)C(=O)N[C@@H](CC(N)=O)C(N)=O` [SEQ ID NO:11, Acetyl-glutaminyl-tyrosyl-arginyl-histidyl-tyrosyl-tryptophyl-seryl-glutamyl-asparaginyl-leucyl-phenylalanyl-glutaminyl-alanyl-phenylalanyl-asparagineAmide], for which the “dose dependent inhibition of TNFα (FIG. 1)” value was “dose dependent inhibition”.

As usually defined, the inhibition is the drop in the measured response relative to a control, in per cent.

Source of the values: US5486595A, “Tumor necrosis factor inhibitors” (Centecor, Inc., priority 1994, dated 1996).
